Reference: patent publication US6509380B1, “Method of treating iron overload with acetaminophen” (Marshall University Research Corporation, priority 2001, dated 2003)

What was measured:
[1] = Toxicity of acetaminophen in iron overloaded animals versus animals with normal iron levels; format: in vivo; conditions: multiple tests, no details given
Source text: It was initially believed that acetaminophen would be more toxic in iron overloaded animals than in animals having normal iron levels.

iron-overloaded gerbils = assay: Iron-overload model in Mongolian gerbils (iron dextran ip), treatment with acetaminophen; format: in vivo, Mongolian gerbil
Source text: Female Mongolian gerbils were divided into groups: positive iron control (iron injections given), iron-treated (injections of iron and acetaminophen), negative iron controls (no iron given), and treatment controls (injections of the investigational agent, only). Gerbils designated to receive iron were iron overloaded by a series of intraperitoneal (ip) injections of iron dextran during a two-month period of time. Treatments were initiated one month after completion of iron overloading and continued for one additional month.
Electrocardiograms (ECGs) were done on gerbils in all four groups, two months and again three months after completion of iron overloading. Gerbils were autopsied five months after completion of iron overloading and resulting stained tissue slides were evaluated by light microscopy. Livers and whole hearts were obtained from gerbils in control and iron-overloaded groups and weighed. Whole hearts and weighed liver samples were acid digested and measured for total iron content.

Q: What does the source list for `CC(=O)Nc1ccc(O)cc1` [acetaminophen]?
A: toxicity in animals having an iron overload compared with animals having normal iron levels [1]: less toxic in animals having an iron overload than in animals having normal iron levels; premature ventricular complexes (EKG findings) (iron-overloaded gerbils; ECGs two and three months after completion of iron overloading, four of 10 untreated iron-overloaded gerbils (40%) showed them): not in animals from the other three groups; iron-induced cardiac and hepatic hypertrophy (heart weights, heart/total body weight ratios, liver weights, liver/total body weight ratios) (iron-overloaded gerbils; autopsies, weight data and histological evaluations): effectively combats iron-induced cardiac and hepatic hypertrophy; reduction of cardiac iron (ICP-AES tissue iron measurement) (iron-overloaded gerbils; iron-overloaded female gerbils, versus untreated iron-overloaded animals, almost entirely from cardiomyocytes, less from cardiac macrophages, P<0.005): over 40%; reduction in liver iron (ICP-AES tissue iron measurement) (iron-overloaded gerbils; iron-overloaded female gerbils, versus untreated iron-overloaded animals, not statistically significant): 17%; accumulations of iron in the bone marrow, proximal renal tubules, heart and numerous other organs and tissues (iron-overloaded gerbils; stained tissue slides, light microscopy, less effect in the livers): greatly reduced accumulations of iron; deaths (iron-overloaded gerbils; within 5 months after iron overloading, eight of 20 untreated iron-overloaded gerbils died): No deaths
